Reference: patent US9072729B2, “Method for treating fibrosis and cancer with imidazolium and imidazolinium compounds” (Agency for Science, Technology and Research, priority 2008, dated 2015)

Tests used:
NF-κB P65 = test: Western blotting of nuclear NF-κB and AP-1 in HSC T6 cells; assay type: cell-based, rat; settings: DBZIM 100 μM, TDBZIM 50 μM, 48 h
Method: FIG. 11. Western blotting of NF-κB and AP-1 (c-Fos, JunD and Fra-1) protein expressions in HSC T6 cells treated with DBZIM (100 μM) and TDBZIM (50 μM) for 48 h. 15 μg of nuclear protein was resolved in 4-12% gradient PAGE-SDS gel. The target proteins were recognized by the respective antibodies, and visualized by the ECL method. The membrane was stripped and probed for the Tata binding protein TBP used as the loading control.
Protein extracts were prepared by lysing a cell pellet in 10 volumes of boiled 1% sodium dodecyl sulfate (SDS) (90-95° C.) for 10 min for GFAP, or using NE-PER nuclear and cytoplasmic extraction reagents from Pierce (IL, USA) for nuclear proteins, or RIPA (Pierce, Ill., USA) for SMAA, fibronectin, collagen αI(I), TGF-β1 and TGFβ RI. Protein content was quantified using a BCA kit (Pierce, Ill., USA). […] The membrane was then probed with primary antibodies against GFAP (Dako, Denmark), SMAA (Sigma, USA), procollagen αI(I), fibronectin, c-Jun, c-Fos, JunB, JunD, Fra-1, Fra-2 (Santa Cruz Biotechnology, CA, USA), NF-κB P65, TGF-β1 and TGFβ RI (Abeam, UK), and detected by horseradish peroxidase-conjugated secondary antibody (Santa Cruz Biotechnology, CA, USA). […] Protein bands were recorded on X-ray film by reacting with ECL chemiluminescence reagents (Amersham Biosciences, NJ, USA). […]

GFAP-LacZ transgene = test: β-galactosidase activity in T6/GFAP-lacZ cells; assay type: cell-based, rat
Method: FIG. 12. (a) DBZIM and (b) TDBZIM attenuated GFAP-LacZ transgene as reported by β-galactosidase activity. Stable transfected T6 GFAP-LacZ cells were treated with compounds of 1-300 μM concentrations, and assayed after 24 h and 48 h. The (3-galactosidase activity was normalized to the total protein, and presented as relative value after comparing to the vehicle control. The data were presented as mean and SEM, N=6, *^cP<0.005, and *^dP<0.0005, when compared to the vehicle control.
Beta-galactosidase activity in extracts from T6/GFAP-lacZ cells treated by DBZIM or TDBZIM was measured using a chemiluminescent assay kit (Roche, Mannheim, Germany) in a 96-well plate format, according to the manufacturer's instructions. Briefly, cells were washed twice with ice-cold 1×PBS (pH 7.4), and lysed for 30 min at room temperature in the lysis buffer. The supernatant was collected for assays with a Tecan Sere II plate reader. Protein concentration was determined with a BCA protein assay kit (Pierce, Ill., USA). Specific β-galactosidase activity was obtained by normalizing against total cellular protein content.

FVB mice = test: General toxicity of IMSs in mice; assay type: in vivo; settings: intraperitoneally every other day for 2 weeks
Method: (§1) IMSs (DPIM and DBZIM) were dissolved in saline, and administered to Friend virus B-Type (FVB) mice (weighing ˜25-30 g) intraperitoneally every other day for 2 weeks. The dosages were 0, 200, 300, 350, 400 and 500 mg/kg for DPIM, and 0, 10, 30, 35, 40 and […] for DBZIM. The injection volume was maintained at 100-160 μl. The mortality rate of mice was assessed after the treatment. The animal experimental protocol was approved by the Institutional Animal Care and Use Committee (IACUC) of Biological Resource Center (BRC) at Biopolis, Singapore.
(§2) In the preliminary toxicity studies, two forms of IMSs were selected for in vivo testing with FVB inbred mice. For DBZIM, the lethal dosage was 50 mg/kg and LD50 was estimated to be 30-40 mg/kg. For DPIM, the lethal dosage was 500 mg/kg and LD50 was ˜300-400 mg/kg.

[1] = General toxicity of IMSs in mice; assay type: in vivo; settings: mouse, in vivo, ip; FVB mice, intraperitoneally every other day for 2 weeks; estimated
Method: as §1, §2

HLE cells [2] = test: Growth inhibition assay (MTT), HLE; assay type: cell-based, human
Method: The effect of IMSs (IBN-15, IBN-19, IBN-24, IBN-25 and IBN-32) on the proliferative properties of p53 mutant cell line HLE was examined. The cytotoxicity activity and proliferation inhibition of IMSs in tumor cells were measured by MTT. […] The control experiments with DMSO alone (0.05% v/v) had no effect on cell proliferation. […] (Table 4) Microscopic observation on the cell cultures visually confirmed the inhibition on cell proliferation by IMSs. (FIG. 35)

HLE cells [3] = test: Cell cycle analysis (PI flow cytometry); assay type: cell-based, human; settings: 72 h; for cells in the S phase: at respective IC-50, control 24%; for cells in the G2/M phase: at respective IC-50, control 30%; for cells in the G1 phase: at respective IC-50, control 50%
Method: FIG. 37. IMSs arrest Hepatocarcinoma cells. Cells were treated with vehicle and IBN 15, IBN 19, IBN 24, IBN 25 and IBN 32 for 72 h, and cell cycle distribution was assessed by flow cytometry. A) Example FACS profiles of propidium iodide-stained control cells, and cells treated with IMSs respectively. B) % of cells in cell cycle phase C) % of cells in subG0 population. Each value is the mean±S.D. of three determinations.
To perform cell cycle distribution analysis, 4×10^5 cells were plated in 10 cm dish. The cells (70% confluence) were serum-starved for 24 h to synchronize them in the G0 phase of the cell cycle. After 24 h incubation, the cells were replaced with fresh 10% DMEM medium and then treated 60 μM of IBN-15, 90 μM of IBN-19, 90 μM of IBN-24, 30 μM of […] and 20 μM of IBN-32) and 0.045% DMSO as control for 72 h. The floating and trypsinized adherent cells were collected and washed with PBS. The cell pellets were resuspended in 1 ml of PBS and fixed by the addition of 70% ice-cold ethanol and stored at −20° C. After incubation for 24 hr, the cells were re-pelleted by centrifugation, the cells were washed once with PBS and resuspended in 0.1 mL of PBS containing 100 μg/ml of RNase and then incubated at 37° C. for 15 min. Finally, the cells were stained with 0.5 ml of PI solution (100 μg/mL in PBS) for 30 min. Cell cycle distribution was detected by a BD FACS array flow cytometer (Becton Dickinson). Cells with sub-G0 DNA were classified as apoptotic cells.

## 1,3,5-tris(4-methyl-imidazolium)-linked cyclophane.3Br [TDBZIM]
NF-κB P65
  nuclear NF-κB P65 (active form) protein: significantly attenuated
GFAP-LacZ transgene; 100 μM, 24 h
  suppression of β-galactosidase activity (transient): 20%

## [Br-].c1ccc(Cn2cc[n+](Cc3ccccc3)c2)cc1 [DBZIM, 1,3-bisbenzylimidazolium bromide]
NF-κB P65
  nuclear NF-κB P65 (active form) protein: significantly attenuated
FVB mice
  lethal dosage: 50 mg/kg
[1]
  LD50 at 2 weeks: 30 to 40 mg/kg
GFAP-LacZ transgene; 100 μM
  suppression of β-galactosidase activity: 25%
GFAP-LacZ transgene; 300 μM
  suppression of β-galactosidase activity: 34%

## CC(=O)Oc1ccc(C[n+]2ccn(Cc3ccccc3)c2C)cc1.[Cl-] [IBN-19, 1-benzyl-3-(4-acetate-benzyl)-2-methyl-imidazolium chloride]
HLE cells [2]; 72 h
  IC50: 90 µM
HLE cells [2]; 120 h
  IC50: 28 µM
HLE cells [3]
  cells in the S phase: 19.8%
  cells in the G2/M phase: 23.7%
  cells in the G1 phase: 29%

## Cc1ccc(C[n+]2ccn(Cc3ccccc3)c2)cc1.[Cl-] [IBN-24, 1-benzyl-3-(4-methylbenzyl)-imidazolium chloride]
HLE cells [2]; Homo sapiens, 72 h
  IC50: 90 µM
HLE cells [2]; Homo sapiens, 120 h
  IC50: 30 µM
HLE cells [3]
  cells in the S phase: 11.34%
  cells in the G2/M phase: 16.3%
  cells in the G1 phase: 28.6%

## CC(C)n1cc[n+](C(C)C)c1.F[B-](F)(F)F [DPIM, 1,3-diisopropylimidazolium tetrafluoroborate]
FVB mice
  lethal dosage: 500 mg/kg
[1]
  LD50 at 2 weeks: 300 to 400 mg/kg
